From the kinase profiling compilation of Christmann-Franck et al. (2016)
Several values for one entry are separate records, joined by “and”; a condition that tells them apart may be missing. Identical values can stand only once.

Columns and labels:
Assay in all cases: radiometric filter-binding kinase assay, Kinase HotSpot
Conditions in all cases: compound 0.5 µM; ATP 10 µM
[1] = target: GRK5 (human) (UniProt P34947)
[2] = target: EPHB4 (human) (UniProt P54760)
[3] = target: WNK2 (human) (UniProt Q9Y3S1)
[4] = target: CSNK1A1 (human) (UniProt P48729)
CSNK1A1 (human), sequence (P48729 whole entry, looked up): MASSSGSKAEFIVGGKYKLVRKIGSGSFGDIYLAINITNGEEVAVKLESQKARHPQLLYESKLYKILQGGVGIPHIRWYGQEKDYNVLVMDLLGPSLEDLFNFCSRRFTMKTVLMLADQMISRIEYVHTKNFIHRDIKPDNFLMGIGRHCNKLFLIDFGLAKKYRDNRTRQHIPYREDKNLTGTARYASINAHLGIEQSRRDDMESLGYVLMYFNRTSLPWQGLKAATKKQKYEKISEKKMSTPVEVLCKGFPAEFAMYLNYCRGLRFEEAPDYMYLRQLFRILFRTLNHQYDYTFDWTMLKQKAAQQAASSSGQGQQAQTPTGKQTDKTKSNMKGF

[5] = target: MARK2 (human) (UniProt Q7KZI7)
[6] = target: STK39 (human) (UniProt Q9UEW8)
[7] = target: DMPK (human) (UniProt Q09013)
[8] = target: LCK (human) (UniProt P06239)
[9] = target: CAMK1 (human) (UniProt Q14012)
[10] = target: TGFBR2 (human) (UniProt P37173)
[11] = target: YES1 (human) (UniProt P07947)
[12] = target: DYRK3 (human) (UniProt O43781)
DYRK3 (human), sequence (O43781 whole entry, looked up): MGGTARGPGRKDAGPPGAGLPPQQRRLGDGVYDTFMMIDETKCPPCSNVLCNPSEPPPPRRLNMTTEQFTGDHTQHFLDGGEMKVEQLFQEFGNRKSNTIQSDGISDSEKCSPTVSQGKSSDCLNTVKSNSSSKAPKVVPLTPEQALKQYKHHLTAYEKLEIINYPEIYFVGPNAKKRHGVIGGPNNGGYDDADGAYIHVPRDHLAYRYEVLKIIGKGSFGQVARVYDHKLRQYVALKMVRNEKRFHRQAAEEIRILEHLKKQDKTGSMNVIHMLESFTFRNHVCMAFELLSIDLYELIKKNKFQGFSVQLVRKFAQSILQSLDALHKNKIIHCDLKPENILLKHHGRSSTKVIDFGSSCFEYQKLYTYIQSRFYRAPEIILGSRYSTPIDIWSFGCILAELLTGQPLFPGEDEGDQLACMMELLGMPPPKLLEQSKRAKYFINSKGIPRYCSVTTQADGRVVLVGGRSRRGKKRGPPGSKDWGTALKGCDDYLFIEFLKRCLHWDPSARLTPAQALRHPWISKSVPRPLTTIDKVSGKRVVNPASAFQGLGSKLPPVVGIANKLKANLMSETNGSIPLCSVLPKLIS

[13] = target: BLK (human) (UniProt P51451)
[14] = target: BRSK1 (human) (UniProt Q8TDC3)
[15] = target: RPS6KB1 (human) (UniProt P23443)
[16] = target: SGK2 (human) (UniProt Q9HBY8)
[17] = target: PRKD3 (human) (UniProt O94806)
[18] = target: RPS6KB2 (human) (UniProt Q9UBS0)
[19] = target: LYN (human) (UniProt P07948)
[20] = target: CDC42BPB (human) (UniProt Q9Y5S2)
[21] = target: FGFR3 (human) (UniProt P22607)
FGFR3 (human), sequence (P22607 whole entry, looked up): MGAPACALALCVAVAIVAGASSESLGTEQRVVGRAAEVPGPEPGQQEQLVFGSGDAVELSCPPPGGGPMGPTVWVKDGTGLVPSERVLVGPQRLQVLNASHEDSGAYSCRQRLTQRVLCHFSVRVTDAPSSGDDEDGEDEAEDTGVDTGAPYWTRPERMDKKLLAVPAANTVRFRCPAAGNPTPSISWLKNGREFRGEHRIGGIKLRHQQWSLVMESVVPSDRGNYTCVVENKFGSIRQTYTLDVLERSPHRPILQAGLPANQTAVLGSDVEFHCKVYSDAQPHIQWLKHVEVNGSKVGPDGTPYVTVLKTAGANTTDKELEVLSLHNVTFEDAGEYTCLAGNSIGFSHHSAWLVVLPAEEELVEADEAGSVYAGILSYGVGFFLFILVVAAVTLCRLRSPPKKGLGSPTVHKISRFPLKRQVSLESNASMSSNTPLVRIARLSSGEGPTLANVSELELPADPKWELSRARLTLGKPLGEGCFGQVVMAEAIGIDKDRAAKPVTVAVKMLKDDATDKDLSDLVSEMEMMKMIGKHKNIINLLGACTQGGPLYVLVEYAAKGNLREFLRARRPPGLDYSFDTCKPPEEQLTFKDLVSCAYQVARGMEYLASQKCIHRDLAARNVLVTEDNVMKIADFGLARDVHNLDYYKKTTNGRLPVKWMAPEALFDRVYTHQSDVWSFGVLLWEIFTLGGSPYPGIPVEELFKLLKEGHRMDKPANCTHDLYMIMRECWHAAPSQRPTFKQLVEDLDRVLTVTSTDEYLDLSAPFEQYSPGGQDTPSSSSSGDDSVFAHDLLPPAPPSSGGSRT

[22] = target: CDK9 CCNT1 (human) (UniProt P50750+O60563)
[23] = target: CDK4 CCND3 (human) (UniProt P30281+P11802)
CDK4 CCND3 (human), sequence (P11802 whole entry, looked up): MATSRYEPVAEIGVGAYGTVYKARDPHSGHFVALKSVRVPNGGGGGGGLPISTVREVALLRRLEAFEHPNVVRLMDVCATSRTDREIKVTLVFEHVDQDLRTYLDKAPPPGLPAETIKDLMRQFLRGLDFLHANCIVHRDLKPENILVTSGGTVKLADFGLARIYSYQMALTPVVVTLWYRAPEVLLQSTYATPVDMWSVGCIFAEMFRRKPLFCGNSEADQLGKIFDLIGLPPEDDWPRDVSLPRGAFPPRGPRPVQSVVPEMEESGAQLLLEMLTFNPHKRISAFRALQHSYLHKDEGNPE
CDK4 CCND3 (human), sequence (P30281 whole entry, looked up): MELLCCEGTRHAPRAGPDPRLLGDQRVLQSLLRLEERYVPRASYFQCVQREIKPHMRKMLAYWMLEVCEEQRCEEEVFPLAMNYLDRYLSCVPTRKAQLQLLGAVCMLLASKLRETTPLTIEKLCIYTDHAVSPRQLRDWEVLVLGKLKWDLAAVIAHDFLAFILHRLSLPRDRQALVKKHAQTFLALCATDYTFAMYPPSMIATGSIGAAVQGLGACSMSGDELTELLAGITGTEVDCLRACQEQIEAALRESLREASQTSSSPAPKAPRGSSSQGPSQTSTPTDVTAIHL

[24] = target: PIM2 (human) (UniProt Q9P1W9)
[25] = target: ABL1 (human) (UniProt P00519)
[26] = target: MAP3K3 (human) (UniProt Q99759)
MAP3K3 (human), sequence (Q99759 whole entry, looked up): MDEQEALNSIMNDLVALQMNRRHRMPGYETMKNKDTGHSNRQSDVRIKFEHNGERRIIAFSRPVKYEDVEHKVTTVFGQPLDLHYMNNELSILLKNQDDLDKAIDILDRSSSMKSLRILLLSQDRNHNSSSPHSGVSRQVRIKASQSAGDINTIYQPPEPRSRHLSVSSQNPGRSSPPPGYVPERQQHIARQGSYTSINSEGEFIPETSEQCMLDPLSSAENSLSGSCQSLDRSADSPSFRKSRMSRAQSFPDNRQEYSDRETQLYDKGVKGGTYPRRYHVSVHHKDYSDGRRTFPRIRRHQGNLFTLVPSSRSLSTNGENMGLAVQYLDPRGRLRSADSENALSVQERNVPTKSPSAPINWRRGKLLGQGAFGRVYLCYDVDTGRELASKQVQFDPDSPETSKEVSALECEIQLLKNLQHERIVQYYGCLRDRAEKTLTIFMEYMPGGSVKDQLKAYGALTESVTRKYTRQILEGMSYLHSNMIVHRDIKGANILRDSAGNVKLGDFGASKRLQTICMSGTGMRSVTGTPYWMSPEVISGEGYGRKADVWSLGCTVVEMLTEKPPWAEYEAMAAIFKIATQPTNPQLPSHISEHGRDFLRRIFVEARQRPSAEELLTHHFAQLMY

[27] = target: RIPK2 (human) (UniProt O43353)
[28] = target: FRK (human) (UniProt P42685)
[29] = target: CDK4 CCND1 (human) (UniProt P24385+P11802)
CDK4 CCND1 (human), sequence (P11802 whole entry, looked up): as the sequence (P11802 whole entry, looked up) above
CDK4 CCND1 (human), sequence (P24385 whole entry, looked up): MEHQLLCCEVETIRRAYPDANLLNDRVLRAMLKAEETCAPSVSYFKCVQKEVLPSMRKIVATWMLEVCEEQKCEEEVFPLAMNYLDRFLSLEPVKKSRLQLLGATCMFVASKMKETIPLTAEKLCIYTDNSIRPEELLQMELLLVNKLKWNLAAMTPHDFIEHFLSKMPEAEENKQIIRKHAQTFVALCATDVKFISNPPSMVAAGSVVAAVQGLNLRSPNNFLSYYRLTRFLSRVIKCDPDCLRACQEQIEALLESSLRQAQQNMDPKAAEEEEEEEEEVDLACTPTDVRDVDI

[30] = target: TAOK1 (human) (UniProt Q7L7X3)
[31] = target: ROS1 (human) (UniProt P08922)
[32] = target: LIMK1 (human) (UniProt P53667)
LIMK1 (human), sequence (P53667 whole entry, looked up): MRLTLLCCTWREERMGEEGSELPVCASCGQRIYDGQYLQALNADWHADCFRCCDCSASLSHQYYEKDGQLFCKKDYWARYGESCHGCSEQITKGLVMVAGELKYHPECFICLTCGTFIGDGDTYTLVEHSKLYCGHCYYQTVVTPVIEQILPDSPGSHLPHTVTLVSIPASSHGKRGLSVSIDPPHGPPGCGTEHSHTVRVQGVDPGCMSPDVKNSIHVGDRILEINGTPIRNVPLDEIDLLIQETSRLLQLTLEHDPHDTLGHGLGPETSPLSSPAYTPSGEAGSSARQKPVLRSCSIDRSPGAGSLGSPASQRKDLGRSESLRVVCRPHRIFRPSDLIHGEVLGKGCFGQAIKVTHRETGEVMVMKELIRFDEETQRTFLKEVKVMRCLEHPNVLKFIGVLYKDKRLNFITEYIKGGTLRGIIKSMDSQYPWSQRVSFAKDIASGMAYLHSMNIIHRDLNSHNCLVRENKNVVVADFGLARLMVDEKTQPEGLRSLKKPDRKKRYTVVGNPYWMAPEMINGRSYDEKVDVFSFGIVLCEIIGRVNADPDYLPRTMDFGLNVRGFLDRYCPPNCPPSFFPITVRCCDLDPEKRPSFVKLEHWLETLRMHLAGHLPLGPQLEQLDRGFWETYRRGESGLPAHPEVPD

[33] = target: PRKG1 (human) (UniProt Q13976)
[34] = target: MUSK (human) (UniProt O15146)
[35] = target: CAMK1D (human) (UniProt Q8IU85)
CAMK1D (human), sequence (Q8IU85 whole entry, looked up): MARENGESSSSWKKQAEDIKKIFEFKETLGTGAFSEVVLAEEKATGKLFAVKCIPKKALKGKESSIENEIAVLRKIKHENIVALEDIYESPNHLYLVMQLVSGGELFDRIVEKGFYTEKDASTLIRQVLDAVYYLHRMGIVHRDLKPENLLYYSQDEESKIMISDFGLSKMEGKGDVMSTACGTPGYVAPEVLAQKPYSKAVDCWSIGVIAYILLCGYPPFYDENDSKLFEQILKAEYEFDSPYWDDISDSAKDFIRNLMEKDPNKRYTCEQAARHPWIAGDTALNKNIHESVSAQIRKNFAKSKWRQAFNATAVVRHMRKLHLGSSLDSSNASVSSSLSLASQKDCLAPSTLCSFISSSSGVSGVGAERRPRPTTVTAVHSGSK

[36] = target: CLK1 (human) (UniProt P49759)
[37] = target: AXL (human) (UniProt P30530)
[38] = target: CDK5 CDK5R1 p35 (human) (UniProt Q00535+Q15078)
[39] = target: CLK3 (human) (UniProt P49761)
[40] = target: ROCK2 (human) (UniProt O75116)
[41] = target: ULK2 (human) (UniProt Q8IYT8)
[42] = target: JAK3 JH1 JH2 (human) (UniProt P52333)

GRK5 (human), sequence (P34947 whole entry, looked up): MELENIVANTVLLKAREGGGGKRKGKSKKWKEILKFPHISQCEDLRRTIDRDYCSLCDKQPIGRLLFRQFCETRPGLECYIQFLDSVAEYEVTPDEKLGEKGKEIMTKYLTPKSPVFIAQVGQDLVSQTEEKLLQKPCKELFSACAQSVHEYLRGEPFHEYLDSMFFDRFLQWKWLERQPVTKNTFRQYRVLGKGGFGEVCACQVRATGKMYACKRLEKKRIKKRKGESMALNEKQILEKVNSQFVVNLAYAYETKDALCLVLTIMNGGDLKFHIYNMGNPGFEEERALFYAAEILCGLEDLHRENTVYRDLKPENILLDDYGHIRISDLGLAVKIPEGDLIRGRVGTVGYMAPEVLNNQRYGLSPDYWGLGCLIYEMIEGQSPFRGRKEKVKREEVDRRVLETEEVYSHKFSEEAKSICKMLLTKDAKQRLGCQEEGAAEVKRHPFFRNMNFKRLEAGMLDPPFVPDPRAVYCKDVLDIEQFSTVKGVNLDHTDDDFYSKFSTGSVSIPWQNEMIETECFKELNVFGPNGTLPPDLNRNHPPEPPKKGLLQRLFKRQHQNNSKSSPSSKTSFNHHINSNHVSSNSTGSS

Q: For `CCCCc1c(-c2ccc(OC)cc2)[nH]c2nccnc12`, which residual activity [1] is on record?
A: 105%

Q: What about the residual activity [2] of the same compound?
A: 89.5%

Q: And the residual activity [3]?
A: 112%

Q: And the residual activity [4]?
A: 92.9%

Q: And the residual activity [5]?
A: 83.1%

Q: And the residual activity [6]?
A: 77.8%

Q: And the residual activity [7]?
A: 84.3%

Q: What about the residual activity [8] of the same compound?
A: 85%

Q: And the residual activity [9]?
A: 90.9%

Q: What about the residual activity [10] of the same compound?
A: 74.8%

Q: And the residual activity [11]?
A: 45.7%

Q: What about the residual activity [12] of the same compound?
A: 96.1%

Q: What about the residual activity [13] of the same compound?
A: 96.7%

Q: What about the residual activity [14] of the same compound?
A: 89.1%

Q: What about the residual activity [15] of the same compound?
A: 108%

Q: And the residual activity [16]?
A: 116%

Q: What about the residual activity [17] of the same compound?
A: 88.5%

Q: What about the residual activity [18] of the same compound?
A: 99.7%

Q: And the residual activity [19]?
A: 108% and 85.5%

Q: What about the residual activity [20] of the same compound?
A: 92.5%

Q: And the residual activity [21]?
A: 86.8%

Q: And the residual activity [22]?
A: 55.2%

Q: What about the residual activity [23] of the same compound?
A: 69.7%

Q: What about the residual activity [24] of the same compound?
A: 115%

Q: And the residual activity [25]?
A: 83.4%

Q: And the residual activity [26]?
A: 99.8%

Q: And the residual activity [27]?
A: 71%

Q: What about the residual activity [28] of the same compound?
A: 86.5%

Q: And the residual activity [29]?
A: 60.4%

Q: And the residual activity [30]?
A: 87%

Q: And the residual activity [31]?
A: 37.5%

Q: What about the residual activity [32] of the same compound?
A: 65.3%

Q: What about the residual activity [33] of the same compound?
A: 102% and 92.7%

Q: And the residual activity [34]?
A: 95.4%

Q: And the residual activity [35]?
A: 97.9%

Q: And the residual activity [36]?
A: 102%

Q: What about the residual activity [37] of the same compound?
A: 110%

Q: And the residual activity [38]?
A: 48.3%

Q: What about the residual activity [39] of the same compound?
A: 116%

Q: And the residual activity [40]?
A: 97.2%

Q: And the residual activity [41]?
A: 108%

Q: What about the residual activity [42] of the same compound?
A: 92.8%

Q: For `COc1ccc2c(c1)/C(=C/c1cnc[nH]1)C(O)=N2`, which residual activity [1] is on record?
A: 97%

Q: And the residual activity [2]?
A: 91.1%

Q: What about the residual activity [3] of the same compound?
A: 102%

Q: What about the residual activity [4] of the same compound?
A: 86.4%

Q: And the residual activity [5]?
A: 50%

Q: And the residual activity [6]?
A: 86.1%

Q: What about the residual activity [7] of the same compound?
A: 104%

Q: What about the residual activity [8] of the same compound?
A: 92%

Q: What about the residual activity [9] of the same compound?
A: 103%

Q: And the residual activity [10]?
A: 107%

Q: What about the residual activity [11] of the same compound?
A: 82.1%

Q: What about the residual activity [12] of the same compound?
A: 98.6%

Q: What about the residual activity [13] of the same compound?
A: 90.3%

Q: And the residual activity [14]?
A: 47.1%

Q: What about the residual activity [15] of the same compound?
A: 98.2%

Q: And the residual activity [16]?
A: 71.4%

Q: And the residual activity [17]?
A: 38%

Q: What about the residual activity [18] of the same compound?
A: 98.7%

Q: What about the residual activity [19] of the same compound?
A: 88.3% and 98.3%

Q: And the residual activity [20]?
A: 104%

Q: And the residual activity [21]?
A: 65%

Q: And the residual activity [22]?
A: 67.4%

Q: And the residual activity [23]?
A: 49.6%

Q: And the residual activity [24]?
A: 97.2%

Q: What about the residual activity [25] of the same compound?
A: 93%

Q: And the residual activity [26]?
A: 84.2%

Q: And the residual activity [27]?
A: 90%

Q: What about the residual activity [28] of the same compound?
A: 96.4%

Q: And the residual activity [29]?
A: 33.7%

Q: And the residual activity [30]?
A: 82.3%

Q: And the residual activity [31]?
A: 91.1%

Q: And the residual activity [32]?
A: 89.6%

Q: And the residual activity [33]?
A: 91.7% and 99%

Q: What about the residual activity [34] of the same compound?
A: 78.3%

Q: And the residual activity [35]?
A: 98.3%

Q: What about the residual activity [36] of the same compound?
A: 87.3%

Q: And the residual activity [37]?
A: 94.3%

Q: What about the residual activity [38] of the same compound?
A: -0.369%

Q: What about the residual activity [39] of the same compound?
A: 103%

Q: What about the residual activity [40] of the same compound?
A: 87.4%

Q: And the residual activity [41]?
A: 97.7%

Q: And the residual activity [42]?
A: 49.6%

Q: What does the source list for `Cc1cccc(-c2nc(C(C)(C)C)[nH]c2-c2ccc3c(c2)OCO3)n1`?
A: residual activity [1]: 108%; residual activity [2]: 91.4%; residual activity [3]: 105%; residual activity [4]: 96.5%; residual activity [5]: 90%; residual activity [6]: 107%; residual activity [7]: 102%; residual activity [8]: 97.9%; residual activity [9]: 99.8%; residual activity [10]: 105%; residual activity [11]: 97%; residual activity [12]: 102%; residual activity [13]: 98.5%; residual activity [14]: 101%; residual activity [15]: 95.9%; residual activity [16]: 100%; residual activity [17]: 89.3%; residual activity [18]: 102%; residual activity [19]: 82.8% and 99.2%; residual activity [20]: 102%; residual activity [21]: 96.6%; residual activity [22]: 88.5%; residual activity [23]: 102%; residual activity [24]: 99.7%; residual activity [25]: 100%; residual activity [26]: 120%; residual activity [27]: 79%; residual activity [28]: 98.8%; residual activity [29]: 105%; residual activity [30]: 97.6%; residual activity [31]: 101%; residual activity [32]: 86.2%; residual activity [33]: 74.6% and 91%; residual activity [34]: 99.1%; residual activity [35]: 102%; residual activity [36]: 98%; residual activity [37]: 101%; residual activity [38]: 98.5%; residual activity [39]: 104%; residual activity [40]: 104%; residual activity [41]: 75.4%; residual activity [42]: 92.6%

Q: Which results are given for `COc1cc2ncnc(Nc3ccc(OCc4ccccc4)cc3)c2cc1OC`?
A: residual activity [1]: 105%; residual activity [2]: 94.6%; residual activity [3]: 91.6%; residual activity [4]: 105%; residual activity [5]: 108%; residual activity [6]: 95.8%; residual activity [7]: 104%; residual activity [8]: 42.2%; residual activity [9]: 98.4%; residual activity [10]: 121%; residual activity [11]: 36%; residual activity [12]: 101%; residual activity [13]: 88.2%; residual activity [14]: 103%; residual activity [15]: 95.1%; residual activity [16]: 100%; residual activity [17]: 95.3%; residual activity [18]: 108%; residual activity [19]: 91.2% and 92.8%; residual activity [20]: 98.8%; residual activity [21]: 102%; residual activity [22]: 94.5%; residual activity [23]: 102%; residual activity [24]: 97.6%; residual activity [25]: 98%; residual activity [26]: 88.7%; residual activity [27]: 61.6%; residual activity [28]: 104%; residual activity [29]: 99.2%; residual activity [30]: 94.4%; residual activity [31]: 98%; residual activity [32]: 95.4%; residual activity [33]: 90.3% and 99.3%; residual activity [34]: 99.3%; residual activity [35]: 104%; residual activity [36]: 111%; residual activity [37]: 94.8%; residual activity [38]: 103%; residual activity [39]: 98.2%; residual activity [40]: 96%; residual activity [41]: 97%; residual activity [42]: 108%
